From PubChem BioAssay AID328 (DTP/NCI, 2004)
“And” between values parts separate entries of the source, which are not always exact repeats. Equal entries are not always repeated. Toxic doses and inconclusive results are not listed.

System: BDF1 mice, P388 leukemia ip, median survival T/C
Assay: NCI In Vivo Anticancer Drug Screen. Data for tumor model P388 Leukemia (intraperitoneal) in B6D2F1 (BDF1) mice
Conditions: endpoint: median survival time, higher = longer survival
Experimental: The antitumor activity of compounds was measured in mice bearing transplantable tumors. Survival or tumor size were measured and the results are expressed as the measurement made in the treated group (T) divided by the measurement made in the vehicle treated control group (C). The tumor model used in this assay is P388 Leukemia (intraperitoneal) in B6D2F1 (BDF1) mice

[1] = dose: 100.0 mg/kg/injection, schedule: Q01DX009 (ip), vehicle: saline with Tween-80
[2] = dose: 200.0 mg/kg/injection, schedule: Q01DX009 (ip), vehicle: saline with Tween-80

COc1cc(O)c2c(c1)C(=O)c1cc3c(c(O)c1C2=O)C(OC1OC(C)C(O)C(O)C1OC)C(OC)C(C)(O)C3=O (stereo not drawn)
T/C (dose: 25.9 mg/kg/injection, schedule: Q01DX009 (ip), vehicle: Klucel (hydroxypropylcellulose) (HPC)): 116 % of control | T/C (dose: 37.5 mg/kg/injection, schedule: Q01DX010 (ip), vehicle: carboxymethylcellulose (CMC)): 150 % of control | T/C (dose: 37.5 mg/kg/injection, schedule: Q01DX010 (ip), vehicle: saline): 111 % of control and 115 % of control | T/C (dose: 43.2 mg/kg/injection, schedule: Q01DX009 (ip), vehicle: Klucel (hydroxypropylcellulose) (HPC)): 121 % of control | T/C (dose: 75.0 mg/kg/injection, schedule: Q01DX010 (ip), vehicle: carboxymethylcellulose (CMC)): 165 % of control | T/C (dose: 75.0 mg/kg/injection, schedule: Q01DX010 (ip), vehicle: saline): 120 % of control and 122 % of control | T/C (dose: 108.0 mg/kg/injection, schedule: Q04DX003 (ip), vehicle: Klucel (hydroxypropylcellulose) (HPC)): 114 % of control | T/C (dose: 120.0 mg/kg/injection, schedule: Q01DX009 (ip), vehicle: Klucel (hydroxypropylcellulose) (HPC)): 106 % of control | T/C (dose: 180.0 mg/kg/injection, schedule: Q04DX003 (ip), vehicle: Klucel (hydroxypropylcellulose) (HPC)): 110 % of control | T/C (dose: 300.0 mg/kg/injection, schedule: Q04DX003 (ip), vehicle: Klucel (hydroxypropylcellulose) (HPC)): 99 % of control | T/C (dose: 500.0 mg/kg/injection, schedule: Q04DX003 (ip), vehicle: Klucel (hydroxypropylcellulose) (HPC)): 97 % of control

CCC1NC(=O)C(NC(=O)c2ncccc2O)C(C)OC(=O)C(c2ccccc2)NC(=O)C2CC(=O)CCN2C(=O)C(Cc2ccccc2)N(C)C(=O)C2CCCN2C1=O (stereo not drawn) (tested in a mixture with another compound)
T/C (dose: 18.75 mg/kg/injection, schedule: Q01DX009 (ip), vehicle: Klucel (hydroxypropylcellulose) (HPC)): 99 % of control | T/C (dose: 37.5 mg/kg/injection, schedule: Q01DX009 (ip), vehicle: Klucel (hydroxypropylcellulose) (HPC)): 105 % of control | T/C (dose: 75.0 mg/kg/injection, schedule: Q01DX009 (ip), vehicle: Klucel (hydroxypropylcellulose) (HPC)): 111 % of control

CCCOC(=O)c1ccc(OP(=O)(N(C)C)N(C)C)cc1
T/C (dose: 50.0 mg/kg/injection, schedule: Q01DX009 (ip), vehicle: saline with Tween-80): 100 % of control | T/C [1]: 104 % of control | T/C [2]: 100 % of control

O=S(c1ccccc1)C1Cc2ccccc2C1Cl (stereo not drawn)
T/C (dose: 50.0 mg/kg/injection, schedule: Q01DX009 (ip), vehicle: other): 107 % of control | T/C (dose: 100.0 mg/kg/injection, schedule: Q01DX009 (ip), vehicle: other): 107 % of control | T/C (dose: 200.0 mg/kg/injection, schedule: Q01DX009 (ip), vehicle: other): 115 % of control

Cc1ccc(C(=O)/C=C\c2ccccc2)cc1
T/C [1]: 104 % of control | T/C (dose: 100.0 mg/kg/injection, schedule: Q04DX003 (ip), vehicle: saline with Tween-80): 103 % of control | T/C [2]: 104 % of control | T/C (dose: 200.0 mg/kg/injection, schedule: Q04DX003 (ip), vehicle: saline with Tween-80): 103 % of control | T/C (dose: 400.0 mg/kg/injection, schedule: Q01DX009 (ip), vehicle: saline with Tween-80): 104 % of control | T/C (dose: 400.0 mg/kg/injection, schedule: Q04DX003 (ip), vehicle: saline with Tween-80): 103 % of control

CCOC(=O)Nc1cc2c(c(N)n1)N=C(c1ccccc1)CN2
T/C (dose: 1.0 mg/kg/injection, schedule: Q01DX009 (ip), vehicle: saline with Tween-80): 115 % of control | T/C (dose: 2.0 mg/kg/injection, schedule: Q01DX009 (ip), vehicle: saline with Tween-80): 151 % of control | T/C (dose: 3.0 mg/kg/injection, schedule: Q01DX009 (ip), vehicle: saline with Tween-80): 151 % of control | T/C (dose: 3.0 mg/kg/injection, schedule: Q04DX003 (ip), vehicle: saline with Tween-80): 117 % of control

COC(=O)[C@H]1[C@H]2C[C@@H]3c4[nH]c5cc(OC)ccc5c4CCN3C[C@H]2C[C@@H](OC(=O)c2cc(OC)c(OC)c(OC)c2)[C@@H]1OC
T/C (dose: 0.37 mg/kg/injection, schedule: Q01DX009 (ip), vehicle: saline with Tween-80): 95 % of control

CC(CNCCN)C[Si](C)(C)C (stereo not drawn)
T/C (dose: 12.5 mg/kg/injection, schedule: Q01DX009 (ip), vehicle: saline): 95 % of control | T/C (dose: 12.5 mg/kg/injection, schedule: Q04DX003 (ip), vehicle: saline): 88 % of control | T/C (dose: 25.0 mg/kg/injection, schedule: Q01DX009 (ip), vehicle: saline): 100 % of control | T/C (dose: 25.0 mg/kg/injection, schedule: Q04DX003 (ip), vehicle: saline): 100 % of control | T/C (dose: 50.0 mg/kg/injection, schedule: Q01DX009 (ip), vehicle: saline): 90 % of control | T/C (dose: 50.0 mg/kg/injection, schedule: Q04DX003 (ip), vehicle: saline): 94 % of control

Clc1c(Cl)c(C[P+](CCP(c2ccccc2)c2ccccc2)(c2ccccc2)c2ccccc2)c(Cl)c(Cl)c1C[P+](CCP(c1ccccc1)c1ccccc1)(c1ccccc1)c1ccccc1
T/C (dose: 3.13 mg/kg/injection, schedule: Q01DX009 (ip), vehicle: suspension in saline): 114 % of control

CCOC(/C=C/c1ccccc1)OCC
T/C (dose: 264.0 mg/kg/injection, schedule: Q04DX003 (ip), vehicle: saline): 90 % of control | T/C (dose: 400.0 mg/kg/injection, schedule: Q04DX003 (ip), vehicle: saline): 100 % of control | T/C (dose: 600.0 mg/kg/injection, schedule: Q04DX003 (ip), vehicle: saline): 113 % of control

c1ccc2c(c1)nnn1c3cnccc3nc21
T/C (dose: 6.25 mg/kg/injection, schedule: Q01DX009 (ip), vehicle: saline with Tween-80): 120 % of control

Cc1ccc(NC2=CC(=O)C(=O)C=C2Nc2ccc(C)cc2)cc1
T/C (dose: 15.0 mg/kg/injection, schedule: Q01DX009 (ip), vehicle: saline with Tween-80): 88 % of control | T/C (dose: 30.0 mg/kg/injection, schedule: Q01DX009 (ip), vehicle: saline with Tween-80): 88 % of control | T/C (dose: 60.0 mg/kg/injection, schedule: Q01DX009 (ip), vehicle: saline with Tween-80): 100 % of control

[N-]=[N+]=C1C(=O)NN=C1c1ccccc1
T/C (dose: 25.0 mg/kg/injection, schedule: Q04DX003 (ip), vehicle: Klucel (hydroxypropylcellulose) (HPC)): 104 % of control | T/C (dose: 50.0 mg/kg/injection, schedule: Q04DX003 (ip), vehicle: Klucel (hydroxypropylcellulose) (HPC)): 114 % of control | T/C (dose: 100.0 mg/kg/injection, schedule: Q04DX003 (ip), vehicle: Klucel (hydroxypropylcellulose) (HPC)): 95 % of control

C=C1C2CCC3(C)C(c4ccoc4)OC(=O)CC13OC1CC(=O)C(C)(C)C(CC(=O)OC)C12C (stereo not drawn)
T/C (dose: 2.0 mg/kg/injection, schedule: Q01DX009 (ip), vehicle: Klucel (hydroxypropylcellulose) (HPC)): 100 % of control | T/C (dose: 4.0 mg/kg/injection, schedule: Q01DX009 (ip), vehicle: Klucel (hydroxypropylcellulose) (HPC)): 100 % of control | T/C (dose: 8.0 mg/kg/injection, schedule: Q01DX009 (ip), vehicle: Klucel (hydroxypropylcellulose) (HPC)): 96 % of control | T/C (dose: 16.0 mg/kg/injection, schedule: Q01DX009 (ip), vehicle: Klucel (hydroxypropylcellulose) (HPC)): 100 % of control | T/C (dose: 32.0 mg/kg/injection, schedule: Q01DX009 (ip), vehicle: Klucel (hydroxypropylcellulose) (HPC)): 89 % of control

Cc1c2ccncc2c(C)c2c1[nH]c1ccccc12
T/C (dose: 10.0 mg/kg/injection, schedule: Q01DX010 (ip), vehicle: saline): 163 % of control | T/C (dose: 14.4 mg/kg/injection, schedule: Q04DX003 (ip), vehicle: clinical formulation): 117 % of control | T/C (dose: 15.0 mg/kg/injection, schedule: Q01DX009 (ip), vehicle: water): 175 % of control | T/C (dose: 15.0 mg/kg/injection, schedule: Q04DX003 (ip), vehicle: water): 166 % of control | T/C (dose: 20.0 mg/kg/injection, schedule: Q01DX010 (ip), vehicle: saline): 159 % of control and 179 % of control | T/C (dose: 21.6 mg/kg/injection, schedule: Q04DX003 (ip), vehicle: water): 172 % of control and 176 % of control | T/C (dose: 24.0 mg/kg/injection, schedule: Q04DX003 (ip), vehicle: clinical formulation): 184 % of control | T/C (dose: 30.0 mg/kg/injection, schedule: Q04DX003 (ip), vehicle: water): 208 % of control | T/C (dose: 36.0 mg/kg/injection, schedule: Q04DX003 (ip), vehicle: water): 235 % of control and 215 % of control | T/C (dose: 40.0 mg/kg/injection, schedule: Q01DX010 (ip), vehicle: saline): 150 % of control | T/C (dose: 40.0 mg/kg/injection, schedule: Q04DX003 (ip), vehicle: clinical formulation): 208 % of control | T/C (dose: 100.0 mg/kg/injection, schedule: Q04DX002 (ip), vehicle: Klucel (hydroxypropylcellulose) (HPC)): 200 % of control | T/C (dose: 120.0 mg/kg/injection, schedule: Q04DX003 (ip), vehicle: water): 100 % of control | T/C (dose: 200.0 mg/kg/injection, schedule: Q04DX002 (ip), vehicle: Klucel (hydroxypropylcellulose) (HPC)): 190 % of control | T/C (dose: 400.0 mg/kg/injection, schedule: Q04DX002 (ip), vehicle: Klucel (hydroxypropylcellulose) (HPC)): 90 % of control
